Assay results published in paper PMC8510595, “Vanillin enones as selective inhibitors of the cancer associated carbonic anhydrase isoforms IX and XII. The out of the active site pocket for the design of selective inhibitors?” (Journal of Enzyme Inhibition and Medicinal Chemistry, 2021).
Where two headings read alike, the source gives them in different places.

Tests used:
Test in all cases: stopped-flow CO2 hydration assay
Type in all cases: biochemical
[1] = target: T1, hCA IX (Homo sapiens, UniProt Q16790); conditions: read-out: Ki (μM)^b / hCA IX
T1 construct: gene CA9; recombinant, obtained in the authors' laboratory; transmembrane isoform

[2] = target: T2, hCA I (Homo sapiens, UniProt P00915); conditions: read-out: Ki (μM)^b / hCA I
T2 construct: gene CA1; recombinant, obtained in the authors' laboratory; cytosolic

[3] = target: T3, hCA II (Homo sapiens, UniProt P00918)
T3 construct: gene CA2; recombinant, obtained in the authors' laboratory; cytosolic

[4] = target: T4, hCA XII (Homo sapiens, UniProt O43570); conditions: read-out: Ki (μM)^b / hCA XII
T4 construct: gene CA12; recombinant, obtained in the authors' laboratory; transmembrane isoform
T4 sequence (O43570 25-354 limits assumed): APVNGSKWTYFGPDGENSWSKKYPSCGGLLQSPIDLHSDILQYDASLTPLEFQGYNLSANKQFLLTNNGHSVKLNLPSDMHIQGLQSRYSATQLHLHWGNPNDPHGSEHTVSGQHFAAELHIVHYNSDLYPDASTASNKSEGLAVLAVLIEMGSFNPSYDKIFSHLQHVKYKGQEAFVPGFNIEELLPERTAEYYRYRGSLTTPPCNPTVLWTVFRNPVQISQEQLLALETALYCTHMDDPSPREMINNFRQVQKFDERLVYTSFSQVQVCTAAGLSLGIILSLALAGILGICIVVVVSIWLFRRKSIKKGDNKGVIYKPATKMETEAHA

T2 sequence (P00915 2-261): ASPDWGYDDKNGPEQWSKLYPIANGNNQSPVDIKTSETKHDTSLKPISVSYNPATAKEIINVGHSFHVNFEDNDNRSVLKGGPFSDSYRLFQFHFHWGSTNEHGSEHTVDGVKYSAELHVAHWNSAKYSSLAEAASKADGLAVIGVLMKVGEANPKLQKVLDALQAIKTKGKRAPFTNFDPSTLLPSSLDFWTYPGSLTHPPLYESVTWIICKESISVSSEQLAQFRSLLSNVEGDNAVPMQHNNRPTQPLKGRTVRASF

SMILES | Ki [1] | Ki [2] | Ki ([3]; read-out: Ki (μM)^b / hCA II) | Ki [4] | Ki ([3]; read-out: Ki (μM)^b / hCA I)
COc1cc(/C=C/C(=O)C[C@@H]2O[C@H](CO)[C@@H](O)[C@H](O)[C@H]2O)ccc1O [compound 1, 1-(β-D-glucopyranosyl)-4–(4-hydroxy-3-methoxyphenyl)but-3-en-2-one] | 30.8 µM | 71.6 µM | > 100 µM | 4.8 µM | –
COc1cc(/C=C/C(=O)C[C@@H]2O[C@H](CO)[C@H](O)[C@H](O)[C@H]2O)ccc1O [compound 2, 1-(β-D-galactopyranosyl)-4–(4-hydroxy-3-methoxyphenyl)but-3-en-2-one] | 20.8 µM | 80.5 µM | > 100 µM | 2.5 µM | –
CCC(=O)/C=C/c1ccc(O)c(OC)c1 [compound 4, (E)-1–(4-Hydroxy-3-methoxyphenyl)pent-1-en-3-one] | 32 µM | > 100 µM | – | 2.5 µM | > 100 µM
COc1cc(/C=C/C(=O)CC(C)C)ccc1O [compound 5, (E)-1–(4-Hydroxy-3-methoxyphenyl)-5-methylhex-1-en-3-one] | 26.3 µM | > 100 µM | – | 1.7 µM | > 100 µM

Continued, values first:

Ki [1] | Ki [2] | Ki ([3]; read-out: Ki (μM)^b / hCA II) | Ki [4] | Ki ([3]; read-out: Ki (μM)^b / hCA I) | SMILES
29.1 µM | 76.3 µM | 96.4 µM | 0.63 µM | – | COc1cc(/C=C/C(=O)c2ccccc2)ccc1O [compound 6, (E)-3–(4-Hydroxy-3-methoxyphenyl)-1-phenylprop-2-en-1-one]
> 100 µM | 92.6 µM | 82 µM | 6.4 µM | – | COc1cc(/C=C/C(=O)c2ccc(Br)cc2)ccc1O [compound 7, (E)-1–(4-Bromophenyl)-3–(4-hydroxy-3-methoxyphenyl)prop-2-en-1-one]
